This note sets out measurements from paper PMC7927616, “Dual‐Targeting Peptide‐Guided Approach for Precision Delivery and Cancer Monitoring by Using a Safe Upconversion Nanoplatform” (Advanced Science, 2021).

A short description of data set [1]: In vivo biodistribution by ICP-MS (Gd). Further details: species or system BALB/c nude mice. The settings on record: mouse, iv.
Data set [2] deals with p65 in LCL3 cells. Briefly: NF‐κB signaling analysis by Western blotting. The following applies: Western blot band density. Type of data set: cell-based. The source says:
(§1) NF‐ĸB signaling pathway is critical for the survival of EBV‐infected tumor cells. Here we investigated if our nanoprobes could affect this oncogenic pathway. EBV‐positive LCL3 and C666 cells were used as models, EBV‐negative HK1 cells were used as control and Western blot was used to analyze the protein expression of p65, a major transcription factor in the NF‐ĸB family. […] GAPDH and Histone are regarded as internal standards in cytosolic and nuclear fractions, respectively. […] This is consistent with the cellular uptake results. The negligible differences of p65 expression level in HK1 cells were quantified after various treatments in Figure S28 (Supporting Information).
(§2) EBV‐positive C666, LCL3 and EBV‐negative HK1 cell pellets were treated with phosphatase and protease inhibitors at 0–4 °C for 30 min. The total protein concentrations were calculated by protein absorbance. The protein was resolved by sodium dodecyl sulfate‐polyacrylamide gel electrophoresis (SDS‐PAGE) and transferred to cellulose filter membranes. The membranes were blocked with 3% BSA in tris‐buffered saline in 0.1% Tween 20 (TBST) for 1 h with gentle shaking and subsequently incubated with primary antibodies (1:1000) in 3% BSA in TBST at 4 °C for overnight. […] Lastly, the density of bands was determined by image analysis system after washing with TBST buffer three times.
(A western blot detects proteins with antibodies after separation by electrophoresis.)

For data set [3], the system named is p65 in C666 cells. Description: NF‐κB signaling analysis by Western blotting. The settings on record: Western blot band density. Type of data set: cell-based.
Description: as §1, §2

On to NaGdF4:Yb^3+, Er^3+@NaGdF4 [UCNP], for which the Tumor uptake result in data set [1] is “nearly undetectable”.
For the substance ‐Ahx‐YFMVFGGRrRKGGFWLY [P5], the entries for the “Decreased p65 expression, nuclear fraction” value in data set [2] and in data set [3] were 86% and 89%, respectively.
